Reference: patent US10087436B2, “Electrophysiologically mature cardiomyocytes and methods for making same” (The Regents of the University of California, priority 2014, dated 2018)

Test system: Ad-Kir2.1-silenced ventricular hESC-CMs
Assay: Addition of the IK1 blocker Ba2+ to Ad-Kir2.1-silenced ventricular hESC-CMs (patch-clamp)
Format: cell-based, human
Conditions: 200 μM Ba2+
Description: HESC- and hiPSC-CMs were dissociated into single cells with 1 mg/ml collagenase II and plated on 0.1% gelatin-coated glass coverslips. Electrophysiological experiments were performed using whole-cell patch-clamp technique with an Axopatch 200B amplifier and the pClamp9.2 software (Axon Instruments Inc., Foster City, Calif.). Pipette solution was consisted of (mM): 110 K^+ aspartate, 20 KCl, 1 MgCl2, 0.1 Na-GTP, 5 Mg-ATP, 5 Na2-phospocreatine, 1 EGTA and 10 HEPES, with pH of 7.3. The external Tyrode's solution consisted of (mM): 140 NaCl, 5 KCl, 1 CaCl2, 1 MgCl2, 10 glucose, and 10 HEPES with pH of 7.4. Voltage- and current-clamp recordings were performed at 37° C. within 24 to 48 hours after adenovirus transduction. ESC-CMs were categorized into pacemaker, atrial or ventricular phenotypes based on the maximum diastolic potential (MDP), maximum rate of rise of the AP and AP duration (APD). […] Atrial cells with a triangular AP profile have a faster rate of rise than pacemaker cells, more hyperpolarized MDP or resting membrane potential (RMP), and intermediate APD. […] Different protocols as given in insets were employed to elicit the corresponding currents. […] All blockers were purchased from Sigma.

## [Ba+2] [Ba^2+]
  firing phenotype upon addition of Ba2+: spontaneously fired APs
